What was measured:
Assay type in all cases: cell-based
Settings in all cases: results to date
[1] = test system: strain TA100; test: Ames mutagenicity evaluation, strain TA100
Description: (§1) Ames mutagenicity evaluations of Compounds A-D were performed by the School of Pharmacy, University of Missouri at Kansas City (UMKC). Results to date have shown Compounds A, C, and D to be negative in strains TA100 and TA97A.

[2] = test system: strain TA97A; test: Ames mutagenicity evaluation, strain TA97A
Description: as §1

[3] = test system: strain TA98; test: Ames mutagenicity evaluation, strain TA98
[4] = test system: strain TA102; test: Ames mutagenicity evaluation, strain TA102
[5] = test system: strain TA1535; test: Ames mutagenicity evaluation, strain TA1535

| Structure (SMILES) | Ames mutagenicity [1] | Ames mutagenicity [2] | Ames mutagenicity [3] | Ames mutagenicity [4] | Ames mutagenicity [5] |
| --- | --- | --- | --- | --- | --- |
| c1ccc(OCCCCCCCCCCOc2ccccc2CC2CO2)c(CC2CO2)c1 (centres unmarked) [Compound A, 1,10-Bis[2-(2,3-epoxypropyl)phenoxy]decane] | negative | negative |  |  |  |
| c1ccc(OCCCOc2ccccc2CC2CO2)c(CC2CO2)c1 (centres unmarked) [Compound B, 1,3-Bis[2-(2,3-epoxypropyl)phenoxy]propane] | negative | marginally positive | negative | negative | negative |
| c1ccc(OCCCCCOc2ccccc2CC2CO2)c(CC2CO2)c1 (centres unmarked) [Compound C, 1,5-Bis[2-(2,3-epoxypropyl)phenoxy]pentane] | negative | negative |  |  |  |
| c1ccc(OCCCCCCOc2ccccc2CC2CO2)c(CC2CO2)c1 (centres unmarked) [Compound D, 1,6-Bis[2-(2,3-epoxypropyl)phenoxy]hexane] | negative | negative |  |  |  |
